“And” between values parts separate entries of the source, which are not always exact repeats. Identical values can stand only once. “Also recorded” adds a separate entry of the source. Like-named read-outs stand apart in the source and are kept apart here. Marks after values point to notes of the source that are not given here.
Assays:
clinical = conditions: human, in vivo
Description: Pharmacokinetic parameters were calculated using noncompartmental methods[20] using Phoenix® WinNonlin® Version 8.1 (WinNonlin version 8.1.03530, Pheonix 64; Pharsight Corporation, Mountain View, CA). […] Oral steady-state clearance (ClSS/F) was calculated using the equation, ClSS = Dose/AUCτ.

[1] = test system: newly diagnosed diffuse intrinsic pontine glioma (DIPG); experiment: Clinical activity: objective response by MRI and overall survival; assay type: in vivo, human
Description: Disease assessments were performed at baseline prior to start of CRT, within 3–4 weeks after completion of CRT, and then every 3 months. Response assessment was determined by changes in size using the maximal 2-dimensional cross-sectional tumor measurements, T × W (product of the longest diameter of the tumor [width (W)] and its longest perpendicular diameter [transverse (T)], using either T1 or T2 weighted images, similar to historical controls.[21],[22] We defined stable disease (SD) as failing to meet criteria for either partial response (PR), complete response (CR) or progressive disease (PD). PD was defined as any appearance of new lesion(s) or an increase of 25% or more in the sum of the product of the perpendicular diameters of the target lesions. PR was defined as a decrease of 50% or more in the sum of the products of the two perpendicular diameters of the target lesion. Two objective determinations of disease status, by MRI, obtained on two consecutive determinations, separated by at least a 4-week time period, were required to determine the patient’s overall best response. Imaging was reviewed centrally for 41 response-evaluable patients.
Progressive disease was based on central imaging review.

[2] = test system: pediatric glioma cell lines including a DIPG derived cell line; parameters: method as in PMID 24305702; conditions: effect enhanced by radiation; cited from earlier work
[3] = test system: adult glioblastoma multiforme (GBM); parameters: method as in ref 3 (Mir et al.); conditions: combining radiation therapy with adavosertib; ref 3 (Mir et al.); cited from earlier work
[4] = Description: Patients received focal CRT at the current standard dose of 54 Gy in 180 cGy fractions, Monday through Friday for a total of 30 fractions over 6 weeks, with a rest period on Saturday and Sunday of each week.
Adverse events (AE) were graded according to the Common Terminology Criteria for Adverse Events version 5.0.
A rolling six design was used to estimate the MTD or RP2D. Overall survival (OS) was estimated using the Kaplan Meier method including 95% confidence intervals (CI). OS was calculated as the time (in months) from enrollment until date of death. […] Progressive disease was based on central imaging review. […] OS is compared with an historical cohort of patients which cumulatively includes DIPG patients from ACNS0126[23] and ACNS0222[22] using a log-rank test. PK parameters were analyzed with summary statistics, including means, and standard deviations.

[5] = cited from earlier work
γH2AX in tumor tissue = test system: γH2AX in tumor tissue; parameters: method as in our preclinical studies; conditions: treated mice compared to control animals; ref our preclinical studies; cited from earlier work
[6] = cited from earlier work; remark: listed apart in the source
[7] = parameters: method as in ref 25 = [25]; 25. Alexander B , Supko J , Agar N , et al. ACTR-14. Phase 1 study of AZD1775 with radiation therapy (RT) and Temozolomide (TMZ) in patients with newly diagnosed gliobasltoma (GBM) and evaluation of i; conditions: adavosertib 200 mg/day (approximately 115 mg/m^2/day) in combination with temozolomide; cited from earlier work
[8] = test system: pediatric high-grade glioma including DIPG; parameters: method as in PMID 24305702, PMID 23270927; conditions: in combination with radiation therapy; cited from earlier work
[9] = test system: γH2AX in peripheral blood mononuclear cells (PBMCs); experiment: γH2AX in peripheral blood cells by flow cytometry (pharmacodynamics); assay type: in vivo, human; conditions: for γ-H2AX positive cells in peripheral blood cells, Post-Day1 dosing / γ-H2AX positive cells in peripheral blood cells, Post-Day5 dosing / γ-H2AX positive cells in peripheral blood cells, Post-Day8 dosing: individual patients
Description: The expression of γH2AX in PBMCs was measured pre and posttreatment using flow cytometry. Effort was made to obtain two baseline (pretreatment) samples on two different days, with the first occurring within 7 days prior to CRT. Serial samples were then collected on days 1 and 5 of treatment, 6-8 hours after each dose, and day 8 prior to the day's dose. Blood samples of 1 mL were drawn into heparinized containing tubes and transferred to a Smart Tube (Thermo Fisher) followed by a 30 min incubation period in a 37°C water bath for activation per manufacture's guidelines. Samples were stored at -80°C until shipment. The frozen Smart Tubes were thawed in a 10-12°C water bath for 20 min before the red blood cells were lysed and intact cells were fixed in 90% methanol and stored at -20°C overnight. Briefly, the methanol fixed cells were washed and blocked in staining buffer (1X PBS containing 0.5 mg/ml BSA) containing TruStain FcX^TM (BioLegend) for 10 min at room temperature. Next, cells were incubated with FITC-conjugated anti-γH2AX […] antibody (BioLegend) for 1 h, washed and DNA stained with propidium iodide (2 μg/ml) before data colection by flow cytometry on CytoflexS. Percent positive γH2AX blood cells was determined by FlowJo software and described as fold-change over baseline for each patient.[16]

[10] = 41 patients evaluable for objective response, with CRT
[11] = 50 mg/m², alternating with weeks of QOD dosing

## C=CCn1c(=O)c2cnc(Nc3ccc(N4CCN(C)CC4)cc3)nc2n1-c1cccc(C(C)(C)O)n1 [adavosertib]
clinical
  Dose dependence of Cmax and AUC: appeared to increase in proportion to dose
  Median BSA-adjusted plasma clearance: 45.2 L/hr/m^2
  Median half-life: 4.4 h
  half-life: 4.4 h
clinical; 50 mg/m2
  AUC: 2.45 ± 1.04 µM·h
  AUC0-8h: 1.42 ± 0.438 µM·h
  AUC(0-inf): 2.22 ± 0.8 µM·h
  CLss (steady-state clearance): 47.9 ± 23.2 L/hr/m^2
  Cmax: 356 ± 109 nM
  Tmax: 1.9 ± 0.9 h
  half-life: 4.2 ± 1.3 h
clinical; 50 mg/m2, AUC0-8h
  AUC(0-t): 1.65 ± 0.654 µM·h
clinical; 50 mg/m2, Cmax
  Cmax: 422 ± 170 nM
clinical; 50 mg/m2, Tmax
  Tmax: 1.9 ± 0.9 h
clinical; 95 mg/m2
  AUC: 5.74 ± 2.72 µM·h
  AUC0-8h: 3.362 ± 0.85 µM·h
  AUC(0-inf): 6.03 ± 1.98 µM·h
  CLss (steady-state clearance): 39.2 ± 17.2 L/hr/m^2
  Cmax: 869 ± 235 nM
  Tmax: 1.8 ± 0.4 h
  half-life: 4.5 ± 1.2 h
clinical; 95 mg/m2, AUC0-8h
  AUC(0-t): 4.01 ± 1.81 µM·h
clinical; 95 mg/m2, Cmax
  Cmax: 933 ± 351 nM
clinical; 95 mg/m2, Tmax
  Tmax: 1.9 ± 0.5 h
clinical; 130 mg/m2
  AUC: 7.21 ± 2.76 µM·h
  AUC0-8h: 3.731 ± 1.583 µM·h
  AUC(0-inf): 5.87 ± 2.26 µM·h
  CLss (steady-state clearance): 41.6 ± 19.8 L/hr/m^2
  Cmax: 821 ± 410 nM
  half-life: 4.1 ± 0.5 h
clinical; 130 mg/m2, AUC0-8h
  AUC(0-t): 4.48 ± 1.77 µM·h
clinical; 130 mg/m2, Cmax
  Cmax: 994 ± 467 nM
clinical; 130 mg/m2, Tmax
  Tmax: 2.3 ± 0.8 h
clinical; 160 mg/m2
  AUC: 12.8 ± 1.8 µM·h
  AUC0-8h: 6.689 ± 2.738 µM·h
  AUC(0-inf): 11.4 ± 3.73 µM·h
  CLss (steady-state clearance): 25.6 ± 3.3 (n* = 4) L/hr/m^2
  Cmax: 1270 ± 705 nM
  half-life: 4.8 ± 1 h
clinical; 160 mg/m2, AUC0-8h
  AUC(0-t): 8.47 ± 2.36 µM·h
clinical; 160 mg/m2, Cmax
  Cmax: 1690 ± 670 nM
clinical; 160 mg/m2, Tmax
  Tmax: 2.2 ± 1.1 h
clinical; 200 mg/m2
  AUC: 16.4 ± 7.76 µM·h
  AUC0-8h: 6.904 ± 2.758 µM·h
  AUC(0-inf): 12.2 ± 1.7 µM·h
  CLss (steady-state clearance): 33.4 ± 25.8 L/hr/m^2
  Cmax: 1650 ± 1050 nM
  Tmax: 2.5 ± 2.1 h
  half-life: 5.6 ± 1.3 h
clinical; 200 mg/m2, AUC0-8h
  AUC(0-t): 9.63 ± 4.22 µM·h
clinical; 200 mg/m2, Cmax
  Cmax: 2020 ± 780 nM
clinical; 200 mg/m2, Tmax
  Tmax: 2.6 ± 1.4 h
clinical; po
  Mean oral clearance: 46.9 L/h
clinical; po, Tmax
  Tmax: 2 h
[1]; [10]
  Progressive disease (PD) as best overall response, number of patients: 8
  Progressive disease (PD) as best overall response, share of patients: 19.5%
  Stable disease (SD) as best overall response, number of patients: 33
  Stable disease (SD) as best overall response, share of patients: 80.5%
[1]; Fisher exact P = .82
  Best response by dose level: no significant difference in best response by dose level
[1]; Kaplan Meier, adavosertib with CRT, all dose levels
  Median overall survival (OS): 11.8 months
[1]; historical cohort ACNS0126 and ACNS0222, log-rank test
  OS compared to historical control: did not differ from historical control; also recorded: no significant difference in median OS; also recorded: not superior
[2]
  Anti-proliferative effect in clonogenic survival assays: dose-dependent anti-proliferative effects
[3]
  Survival in orthotopic GBM models: significantly improved survival
[4]; all dose levels (N = 89)
  Lung infection, patient-courses with grade >= 3: 1 (1) # (%)
[4]; dose level 4 (N = 15), 95 mg/m^2
  Lung infection, patient-courses with grade >= 3: 1 (6) # (%)
[4]; human, in vivo, 6 weeks
  Alanine aminotransferase increased, patient-courses with grade >= 3: 1 (1) # (%)
  Anemia, patient-courses with grade >= 3: 3 (3) # (%)
  Dizziness, patient-courses with grade >= 3: 1 (1) # (%)
  Febrile neutropenia, patient-courses with grade >= 3: 1 (1) # (%)
  Headache, patient-courses with grade >= 3: 1 (1) # (%)
  Hypocalcemia, patient-courses with grade >= 3: 1 (1) # (%)
  Lymphocyte count decreased, patient-courses with grade >= 3: 16 (18) # (%)
  Neutrophil count decreased, patient-courses with grade >= 3: 4 (4) # (%)
  Weight gain, patient-courses with grade >= 3: 2 (2) # (%)
  White blood cell decreased, patient-courses with grade >= 3: 5 (6) # (%)
[4]; human, in vivo, po, 6 weeks
  Recommended phase 2 dose (RP2D): 200 mg/m^2/d
[4]; seven dose levels up to 200 mg/m^2/day with CRT
  Maximum tolerated dose (MTD): No MTD was reached
[5]; adult patients
  Elimination half-life (t1/2): 9 to 11 h
  Tmax: 4 h
[5]; fasting adults, ref a recent report of a food-effect study
  Mean oral clearance: 40.85 L/h
γH2AX in tumor tissue
  γH2AX expression in tumor tissue: increased expression of γH2AX
[6]; earlier pediatric COG study
  BSA-adjusted plasma clearance: 32.5 L/hr/m^2
[6]; in combination with irinotecan 90 mg/m^2/dose, orally daily for 5 days on a 21 day cycle
  MTD of adavosertib: 85 mg/m^2/dose
[7]
  Toxicity in adults with newly diagnosed glioblastoma: significant toxicity
[8]
  Survival in murine models: prolongs survival
[9]; 50 mg/m², During Weeks 1-6
  γ-H2AX positive cells in peripheral blood cells, Post-Day1 dosing: 1.42 and 1.29
  γ-H2AX positive cells in peripheral blood cells, Post-Day5 dosing: 1.42 and 0.32
  γ-H2AX positive cells in peripheral blood cells, Post-Day8 dosing: 0.68 and 0.11
[9]; 50 mg/m², alternating weeks
  γ-H2AX positive cells in peripheral blood cells, Post-Day1 dosing: 2.74
  γ-H2AX positive cells in peripheral blood cells, Post-Day5 dosing: 2.03
  γ-H2AX positive cells in peripheral blood cells, Post-Day8 dosing: 7.24
[9]; [11]
  γ-H2AX positive cells in peripheral blood cells, Post-Day1 dosing: 3.17 and 1.03 and 1.31 and 0.12
  γ-H2AX positive cells in peripheral blood cells, Post-Day5 dosing: 7.63 and 0.70 and 4.90 and 0.15
  γ-H2AX positive cells in peripheral blood cells, Post-Day8 dosing: 1.08 and 2.90 and 2.30 and 0.19
[9]; 95 mg/m², During Weeks 1-6
  γ-H2AX positive cells in peripheral blood cells, Post-Day1 dosing: 2.48 and 3.42 and 1.89
  γ-H2AX positive cells in peripheral blood cells, Post-Day5 dosing: 6.31 and 0.55 and 1.63
  γ-H2AX positive cells in peripheral blood cells, Post-Day8 dosing: 4.92 and 0.04 and 2.75
[9]; 130 mg/m², During Weeks 1-6
  γ-H2AX positive cells in peripheral blood cells, Post-Day1 dosing: 0.26 and 0.38 and 0.61 and 0.16 and 10.60 and 0.31
  γ-H2AX positive cells in peripheral blood cells, Post-Day5 dosing: 0.41 and 0.33 and 2.47 and 0.43 and 3.75 and 0.06
  γ-H2AX positive cells in peripheral blood cells, Post-Day8 dosing: 0.48 and 1.08 and 16.50 and 0.50 and 1.49 and 0.00
[9]; 160 mg/m², During Weeks 1-6
  γ-H2AX positive cells in peripheral blood cells, Post-Day1 dosing: 0.96 and 7.75 and 0.95 and 2.25 and 6.62
  γ-H2AX positive cells in peripheral blood cells, Post-Day5 dosing: 5.27 and 0.13 and 1.86 and 0.31 and 5.28
  γ-H2AX positive cells in peripheral blood cells, Post-Day8 dosing: 5.59 and 5.55 and 0.95 and 3.37 and 3.25
[9]; 200 mg/m², During Weeks 1-6
  γ-H2AX positive cells in peripheral blood cells, Post-Day1 dosing: 0.88 and 2.45 and 17.90 and 0.00
  γ-H2AX positive cells in peripheral blood cells, Post-Day5 dosing: 3.75 and 3.61 and 16.90 and 0.01 and 6.11
  γ-H2AX positive cells in peripheral blood cells, Post-Day8 dosing: 0.40 and 2.17 and 14.70 and 0.01 and 5.81
[9]; any dose level, with CRT
  Change of γH2AX in PBMCs compared to baseline: no significant changes compared to baseline

Reference: paper PMC9209747 (Neuro-oncology Advances, 2022)
